Assay results reported in US20160022605A1, “METHODS FOR REDUCING MICROSATELLITE INSTABILITY INDUCED BY CHEMOTHERAPY AND METHODS FOR SCREENING ANTIOXIDANTS THAT SUPPRESS DRUG-INDUCED MICROSATELLITE INSTABILITY WHILE ENHANCING THE CYTOTOXICITY OF CHEMOTHERAPEUTIC AGENTS” (priority 2014, published 2016).
Entries after “also recorded” stand apart in the source; their conditions may differ.

Experiments:
HCT116-(CA)13 cells [1] = assay: REDOX library screen by high-content microscopy (MSI frequency and cell numbers); assay type: cell-based, human; conditions: 1 μM oxaliplatin, additional concentrations, 3-day co-treatment, 3-day recovery
Procedure: The REDOX library (Cat# BML-2835, ENZO, USA) is composed of 84 compounds that were supplied at 10 mM in DMSO. HCT116-(CA)13 cells were seeded at 1×10^4 cells per well in 96-well glass plates containing 100 μl growth medium. One day after seeding, the cells were co-treated with 1 μM oxaliplatin and an antioxidant at specified concentrations in triplicate for three days, followed by a 3-day recovery in fresh growth medium without the drug and antioxidants.

HCT116 cells [2] = assay: Fluoresceinated PCR-based assay of endogenous microsatellites (Bethesda panel); assay type: cell-based, human; conditions: 3-day recovery
Procedure: Genomic DNA was isolated from HCT116 derivatives in 12-well plates with EasyPure Genomic DNA mini kit. The isolated DNA were amplified with fluoresceinated primers specific for the Bethesda panel of microsatellite [Boland et al., 1998] and selected coding microsatellites as described previously [Li et al., 2014]. Fluoresceinated PCR products were analyzed by the ABI 310 genetic analyzer, and electropherograms were generated with GeneScan Collection software (ABI).

HCT116 cells [3] = assay: Intracellular ROS assay (DCDHF-DA, flow cytometry); assay type: cell-based, human; conditions: 3-day treatment, 3-day recovery; 10 μM 5-FU, 25 nM methotrexate, 50 μM CCNU, 1 μM oxaliplatin
Procedure: Intracellular ROS levels were measured using an oxidation-sensitive 2′,7′-dichlorodihydrofluorescein diacetate (DCDHF-DA) probe, which can be oxidized to the fluorescent 2′,7′-dichloro-fluorescein (DCF) product. After treatment, HCT116 derivatives in 12-well plates were harvested, washed and resuspended in PBS containing 10 μM DCDHF-DA, followed by 30-min incubation at 37° C. in the dark before being subjected to flow cytometry (Quanta SC-MPL). For a ROS curve of H2O2, 2×10^5 HCT116 derivatives were detached, washed, and incubated with 10 μM DCDHF-DA for 30 min at 37° C., followed by flow cytometric analysis after 30-min exposure to different concentrations of H2O2. After excluding cell debris on the basis of electronic volume and side scatter, the fluorescence intensity of DCF was measured in fluorescence channel 1 of the flow cytometer (λex: 488 nm; λem: 525 nm). The ROS level is expressed as the mean fluorescence intensity (MFI) of DCF from 10,000 cells per sample.

HCT116-(CA)13 cells [4] = assay: Frameshift mutation (MSI) analysis by flow cytometry with dual-fluorescent reporter; conditions: for mutation frequency: 3-day treatment, 3-day recovery, untreated 0.46±0.04%; for MSI induction (in words): HCT116 derivatives, single drug
Procedure: (§2) Specified cells were seeded at 1×10^4 or 1×10^5 cells per well in 96-well or 12-well plates respectively. One day after seeding, the cells were treated in triplicates for 3 days with a tested drug in the presence or absence of an antioxidant at indicated concentrations. Subsequently, the drug and/or antioxidant were removed and cells were washed and recovered in fresh growth medium for 3 days before being subjected to analyses. […] On the other hand, PBS was used to make 0.5 M vitamin C stock, saline for making 0.5 M NAC and 0.1 M GSH stocks, and DMSO for making 10 mM curcumin and 10 mM eugenol. Prior to the experiments, PBS was used for diluting the drugs and antioxidants and the final solvent concentration was kept the same for all tested compounds, including untreated controls.
At the end of treatment, adherent cells in 12-well plates were trypsinized and resuspended in PBS containing 1 mM EDTA, and filtered through a 40-μm strainer, and then subjected to flow cytometry (Quanta™ SC-MPL, Beckman Coulter). […] The frequency of frameshift mutations is expressed as the percentage of DsRed^+GFP^+ subpopulation in the GFP^+ cell population.

HCT116+chr3-(CA)13 cells = assay: MSI analysis by high-content microscopy in MMR-proficient cells; assay type: cell-based, human; conditions: 3-day treatment (50 μM CCNU, 5 μM etoposide, 25 nM vinblastine), 3-day recovery; base line 0.35%
Procedure: as §2

HCT116-(CA)13 cells [5] = conditions: for suppression of methotrexate-induced MSI: 25 nM methotrexate with 2.5 mM NAC, 250 μM vitamin C or 1.5 μM curcumin; for suppression of methotrexate-induced MSI / suppression of CCNU-induced MSI: 5 mM GSH; for suppression of CCNU-induced MSI: 50 μM CCNU with 2.5 mM NAC, 250 μM vitamin C, 1.5 μM curcumin or 150 μM eugenol
Procedure: After treatment, HCT116-(CA)13 cells in 96-well glass plates (Corning-Costar®) were fixed with 4% paraformaldehyde and nuclei were stained with 1 μg/ml Hoechst 33258. Fluorescent images of the cells were acquired at 100× magnification by ImageXpress^Micro system (Molecular Devices) and analyzed with MetaXpress® V3.1 software as described previously [Li et al., 2014]. The frequency of frameshift mutations of the (CA)13 microsatellite is expressed as the percentage of the DsRed^+GFP^+Hoechst^+ subpopulation in the GFP^+Hoechst^+ population.

HCT116-(CA)13 cells [6] = assay: Cell viability (MTT assay) with drug and antioxidant co-treatment; conditions: for effect on methotrexate-mediated cytotoxicity (in words): 25 nM methotrexate with NAC, GSH or vitamin C
Procedure: (§1) Cell viability was determined by the MTT assay. Briefly, the optical density of colored formazan converted from MTT by viable cells was determined as previously described [Chang et al., 2002] at 595 nm with an ELISA reader (Thermo Labsystems). Cell viability is expressed as the optical density value of drug-treated cells relative to that of solvent-treated cells, after subtracting the background from the medium.

HCT116 cells [7] = assay: MTT assay, oxaliplatin co-treatment in MMR-deficient cells; conditions: MMR-deficient HCT116, 1 μM oxaliplatin with 2-10 μM antioxidant, 3-day co-treatment
Procedure: as §1

HCT116+chr3 cells = assay: MTT assay in MMR-proficient cells; conditions: MMR-proficient HCT116+chr3, 1 μM oxaliplatin with 2-10 μM antioxidant, 3-day co-treatment
Procedure: as §1

[8] = 3-day treatment, 10 μM 5-FU, 5 μM etoposide, 25 nM vinblastine, 50 μM CCNU, 25 nM methotrexate, 1 μM oxaliplatin
[9] = 1-day treatment, 100 μM CCNU or 100 nM methotrexate
[10] = 5 μM etoposide with 250 μM vitamin C

## N#CC(=Cc1ccc(O)c(O)c1)C(=O)OC/C=C/c1ccccc1 (stereo in doubt) [CDC, [(E)-3-phenylprop-2-enyl] (Z)-2-cyano-3-(3,4-dihydroxyphenyl)prop-2-enoate]
HCT116-(CA)13 cells [1]
  outcome of secondary screen: oxaliplatin-induced MSI and oxaliplatin-mediated cytotoxicity: most promising antioxidants

## O=c1[nH]cc(F)c(=O)[nH]1 [5-FU, 5-fluoro-1H-pyrimidine-2,4-dione]
HCT116 cells [2]; [8]
  instability of Bethesda panel microsatellite markers: induced the instability of the BAT25 microsatellite
HCT116 cells [3]
  intracellular ROS levels: increased intracellular ROS levels
HCT116-(CA)13 cells [4]; 2.5 μM
  mutation frequency: 5.91±0.49%
HCT116-(CA)13 cells [4]; 5 μM
  mutation frequency: 6.37±0.96%
HCT116-(CA)13 cells [4]; 10 μM
  mutation frequency: 8.05±2.01%
HCT116-(CA)13 cells [4]; 5-FU 2.5-10 μM, HCT116-(CA)13 vs HCT116-(N)16
  susceptibility of (CA)13 microsatellite to drug-induced mutations compared to (N)16 random sequence: 1.2-2.8 fold
HCT116-(CA)13 cells [4]
  MSI induction (in words): induced MSI

## O=NN(CCCl)C(=O)NC1CCCCC1 [CCNU, 1-(2-chloroethyl)-3-cyclohexyl-1-nitrosourea]
HCT116 cells [2]; 100 μM CCNU, 1-day treatment
  alteration of D5S346: 1-bp insertion in a non-repetitive region of D5S346
HCT116 cells [2]; [9]
  instability of Bethesda panel microsatellite markers: caused the instability of BAT25 and/or BAT26 microsatellites
HCT116 cells [2]; [8]
  instability of Bethesda panel microsatellite markers: failed to detect alterations
HCT116+chr3-(CA)13 cells
  MSI frequency: 1.26%
HCT116 cells [3]
  intracellular ROS levels: generated the highest ROS level
HCT116-(CA)13 cells [4]
  MSI induction (in words): induced MSI

## N[C@@H](CCC(=O)N[C@@H](CS)C(=O)NCC(=O)O)C(=O)O [GSH, glutathione]
HCT116-(CA)13 cells [5]
  suppression of methotrexate-induced MSI: 13%

## CC(=O)N[C@@H](CS)C(=O)O [NAC, N-acetylcysteine]
HCT116-(CA)13 cells [5]
  suppression of methotrexate-induced MSI: 34%
HCT116-(CA)13 cells [6]
  effect on methotrexate-mediated cytotoxicity (in words): without affecting drug cytotoxicity
HCT116-(CA)13 cells [6]; 1 μM oxaliplatin with 2.5 mM NAC, 5 mM GSH or 150 μM eugenol
  effect on oxaliplatin-mediated cytotoxicity (in words): totally abolished
HCT116-(CA)13 cells [6]; 50 μM CCNU with 2.5 mM NAC or 5 mM GSH
  decrease of CCNU-mediated cytotoxicity: approximately 25%

## O=c1cc(-c2ccccc2)oc2cc(O)c(O)c(O)c12 [baicalein, 5,6,7-trihydroxy-2-phenylchromen-4-one]
HCT116-(CA)13 cells [1]
  outcome of secondary screen: oxaliplatin-induced MSI and oxaliplatin-mediated cytotoxicity: most promising antioxidants

## Cc1cc(C2CCCCC2)n(O)c(=O)c1 [ciclopirox ethanolamine, 2-aminoethanol;6-cyclohexyl-1-hydroxy-4-methylpyridin-2-one]
HCT116-(CA)13 cells [1]
  outcome of secondary screen: oxaliplatin-induced MSI and oxaliplatin-mediated cytotoxicity: most promising antioxidants

## COc1cc([C@@H]2c3cc4c(cc3[C@@H](O[C@@H]3O[C@@H]5CO[C@@H](C)O[C@H]5[C@H](O)[C@H]3O)[C@H]3COC(=O)[C@H]23)OCO4)cc(OC)c1O [etoposide, (5S,5aR,8aR,9R)-5-[[(2R,4aR,6R,7R,8R,8aS)-7,8-dihydroxy-2-methyl-4,4a,6,7,8,8a-hexahydropyrano[3,2-d][1,3]dioxin-6-yl]oxy]-9-(4-hydroxy-3,5-dimethoxyphenyl)-5a,6,8a,9-tetrahydro-5H-[2]benzofuro[6,5-f][1,3]benzodioxol-8-one]
HCT116 cells [2]; [8]
  instability of Bethesda panel microsatellite markers: destabilized the BAT26 microsatellite
HCT116+chr3-(CA)13 cells
  MSI frequency: 3.74%

## C=CCc1ccc(O)c(OC)c1 [eugenol]
HCT116-(CA)13 cells [5]; 25 nM vinblastine with 150 μM eugenol
  suppression of vinblastine-induced MSI: 40%
HCT116-(CA)13 cells [5]
  suppression of CCNU-induced MSI: approximately 55%

## Cc1cc2c(C(C)C)c(O)c(O)c(C=O)c2c(O)c1-c1c(C)cc2c(C(C)C)c(O)c(O)c(C=O)c2c1O [gossypol, 7-(8-formyl-1,6,7-trihydroxy-3-methyl-5-propan-2-ylnaphthalen-2-yl)-2,3,8-trihydroxy-6-methyl-4-propan-2-ylnaphthalene-1-carbaldehyde]
HCT116-(CA)13 cells [1]
  outcome of secondary screen: oxaliplatin-induced MSI and oxaliplatin-mediated cytotoxicity: most promising antioxidants; also recorded: suppress oxaliplatin-induced MSI while enhancing oxaliplatin-mediated cytotoxicity
HCT116 cells [7]
  effect on oxaliplatin-mediated cytotoxicity: enhanced oxaliplatin-mediated cytotoxicity in a concentration-dependent manner
HCT116+chr3 cells
  effect on oxaliplatin-mediated cytotoxicity: enhanced oxaliplatin-mediated cytotoxicity in a concentration-dependent manner

## CN(Cc1cnc2nc(N)nc(N)c2n1)c1ccc(C(=O)N[C@@H](CCC(=O)O)C(=O)O)cc1 [methotrexate, (2S)-2-[[4-[(2,4-diaminopteridin-6-yl)methyl-methylamino]benzoyl]amino] pentanedioic acid]
HCT116 cells [2]; [9]
  instability of Bethesda panel microsatellite markers: caused the instability of BAT25 and/or BAT26 microsatellites
HCT116 cells [2]; [8]
  instability of Bethesda panel microsatellite markers: failed to detect alterations
HCT116 cells [3]
  intracellular ROS levels: but not 25 nM methotrexate increased intracellular ROS levels
HCT116-(CA)13 cells [4]
  MSI induction (in words): induced MSI

## CCCCCCCCOC(=O)/C=C/c1ccc(O)c(O)c1 [n-octyl caffeate, Octyl 3-(3,4-dihydroxyphenyl)prop-2-enoate]
HCT116-(CA)13 cells [1]
  outcome of secondary screen: oxaliplatin-induced MSI and oxaliplatin-mediated cytotoxicity: most promising antioxidants

## N[C@@H]1CCCC[C@H]1N.O=C(O)C(=O)O.[Pt] [oxaliplatin, (1R,2R)-cyclohexane-1,2-diamine;oxalic acid;platinum]
HCT116 cells [2]; [8]
  instability of Bethesda panel microsatellite markers: alterations of four out of five microsatellite markers
HCT116 cells [3]
  intracellular ROS levels: intermediate ROS-generating abilities
HCT116-(CA)13 cells [4]
  MSI induction (in words): strong MSI-inducing; also recorded: induced MSI

## CC[C@]1(O)C[C@@H]2CN(CCc3c([nH]c4ccccc34)[C@@](C(=O)OC)(c3cc4c(cc3OC)N(C)[C@H]3[C@@](O)(C(=O)OC)[C@H](OC(C)=O)[C@]5(CC)C=CCN6CC[C@]43[C@@H]65)C2)C1 [vinblastine]
HCT116 cells [2]; [8]
  instability of Bethesda panel microsatellite markers: destabilized the BAT26 microsatellite
HCT116+chr3-(CA)13 cells
  MSI frequency: 2.10%
HCT116-(CA)13 cells [4]
  MSI induction (in words): induced MSI

## O=C1O[C@H]([C@@H](O)CO)C(O)=C1O [vitamin C]
HCT116-(CA)13 cells [5]
  suppression of methotrexate-induced MSI: 12%
  suppression of CCNU-induced MSI: ~24%
HCT116-(CA)13 cells [5]; [10]
  suppression of etoposide-induced MSI: ~40%
HCT116-(CA)13 cells [6]
  effect on methotrexate-mediated cytotoxicity (in words): without affecting drug cytotoxicity
HCT116-(CA)13 cells [6]; [10]
  enhancement of etoposide-mediated cytotoxicity: ~10%
HCT116-(CA)13 cells [6]; 50 μM CCNU with 250 μM vitamin C
  effect on CCNU-mediated cytotoxicity (in words): without significantly affecting drug cytotoxicity
